# Measurements from patent publication US8158628B2, “Sulfonylated 1,2,3,4-tetrahydropyrrolo[1,2-a]pyrazine compounds and their use as pharmaceuticals” (Gruenenthal GmbH, priority 2009, dated 2012).
# Experiments:
# human B1R = target: T1, human B1R (Homo sapiens, UniProt P46663); test: FLIPR Ca2+ functional assay, B1R antagonism, human B1R in CHO K1 cells; type: cell-based; conditions: test substance 10 μM; hB1R CHO K1 cells; agonist Lys-Des-Arg9 bradykinin at EC80; % of maximum achievable inhibition
# T1 construct: expressed in transfected cells; host or cells: CHO K1 cells (Chinese hamster ovary), stably transfected
# T1 sequence (P46663 1-353): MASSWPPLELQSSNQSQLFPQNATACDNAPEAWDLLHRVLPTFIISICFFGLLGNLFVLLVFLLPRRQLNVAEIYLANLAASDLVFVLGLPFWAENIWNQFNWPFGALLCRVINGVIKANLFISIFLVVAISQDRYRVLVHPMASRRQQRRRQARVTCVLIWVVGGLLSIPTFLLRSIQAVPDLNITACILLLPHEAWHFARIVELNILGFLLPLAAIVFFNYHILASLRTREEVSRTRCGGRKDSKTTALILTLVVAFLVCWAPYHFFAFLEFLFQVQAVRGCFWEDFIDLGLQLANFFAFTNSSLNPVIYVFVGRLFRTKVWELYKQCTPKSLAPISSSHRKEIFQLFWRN
# Method in brief: (§1)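 Stably transfected CHO K1 cells loaded with Fluo-4; Ca2+ fluorescence read on FLIPR (ex 488/em 540 nm). Compound preincubated 10-20 min, then agonist at EC80: Lys-Des-Arg9 bradykinin (human) or Des-Arg9 bradykinin (rat). % inhibition vs maximal inhibition; IC50 from concentration series, n=2-3, N>=2.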
# B1R of the rat = target: T2, B1R of the rat (Rattus norvegicus, UniProt P97583); test: FLIPR Ca2+ functional assay, B1R antagonism, rat B1R in CHO K1 cells; type: cell-based; conditions: test substance 10 μM; rB1R CHO K1 cells; agonist Des-Arg9 bradykinin at EC80; % of maximum achievable inhibition
# T2 construct: expressed in transfected cells; host or cells: CHO K1 cells (Chinese hamster ovary), stably transfected
# T2 sequence (P97583 1-337): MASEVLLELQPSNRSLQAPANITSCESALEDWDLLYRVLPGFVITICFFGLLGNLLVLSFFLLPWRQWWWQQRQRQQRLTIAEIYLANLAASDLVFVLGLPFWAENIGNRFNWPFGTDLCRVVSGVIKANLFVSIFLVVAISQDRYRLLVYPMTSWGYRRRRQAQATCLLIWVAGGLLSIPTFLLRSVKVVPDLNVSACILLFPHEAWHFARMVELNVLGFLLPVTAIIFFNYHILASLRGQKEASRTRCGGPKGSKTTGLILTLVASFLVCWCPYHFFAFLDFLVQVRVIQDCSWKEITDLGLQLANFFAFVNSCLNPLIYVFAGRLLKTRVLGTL
# Method in brief: as §1
Compound,inhibition at 10 µM (human B1R) [%],inhibition at 10 µM (B1R of the rat) [%]
"Cc1ccc(S(=O)(=O)N2CCn3cccc3C2CC(=O)NC2CCCc3cc(CN(C)C(C)(C)C)ccc32)cc1Cl (stereo not shown) [Example 76, N-[6-[(tert-Butyl-methyl-amino)-methyl]-1,2,3,4-tetrahydro-naphthalen-1-yl]-2-[2-[(3-chloro-4-methyl-phenyl)sulfonyl]-1,2,3,4-tetrahydro-pyrrolo[1,2-a]pyrazin-1-yl]-acetamide]",99.8,101
"CCC(C)NCc1ccc2c(c1)CCCC2NC(=O)CC1c2cccn2CCN1S(=O)(=O)c1ccc(C)cc1 (stereo not shown) [Example 126, N-[6-[(1-Methyl-propylamino)-methyl]-1,2,3,4-tetrahydro-naphthalen-1-yl]-2-[2-(p-tolylsulfonyl)-1,2,3,4-tetrahydro-pyrrolo[1,2-a]pyrazin-1-yl]-acetamide]",99.9,102
"Cc1ccc(S(=O)(=O)N2CCn3cccc3C2CC(=O)NC2CCCc3cc(CN(C)C)ccc32)cc1 (stereo not shown) [Example 107, N-[6-(Dimethylaminomethyl)-1,2,3,4-tetrahydro-naphthalen-1-yl]-2-[2-(p-tolylsulfonyl)-1,2,3,4-tetrahydro-pyrrolo[1,2-a]pyrazin-1-yl]-acetamide]",99.3,98.4
"Cc1ccc(S(=O)(=O)N2CCn3cccc3C2CC(=O)NC2CCCc3cc(CN(C)C)ccc32)cc1Cl (stereo not shown) [Example 102, 2-[2-[(3-Chloro-4-methyl-phenyl)sulfonyl]-1,2,3,4-tetrahydro-pyrrolo[1,2-a]pyrazin-1-yl]-N-[6-(dimethylaminomethyl)-1,2,3,4-tetrahydro-naphthalen-1-yl]-acetamide]",99.9,101
"Cc1ccc(S(=O)(=O)N2CCn3cccc3C2CC(=O)NC2CCc3cc(CN(C)C(C)(C)C)ccc3C2)cc1Cl (stereo not shown) [Example 75, N-[6-[(tert-Butyl-methyl-amino)-methyl]-1,2,3,4-tetrahydro-naphthalen-2-yl]-2-[2-[(3-chloro-4-methyl-phenyl)sulfonyl]-1,2,3,4-tetrahydro-pyrrolo[1,2-a]pyrazin-1-yl]-acetamide]",99.9,102
"COc1cc(C)c(S(=O)(=O)N2CCn3cccc3C2CC(=O)N2CCN(C3CCN(C)CC3)CC2)c(C)c1 (stereo not shown) [Example 1, 2-(2-(4-Methoxy-2,6-dimethylphenylsulfonyl)-1,2,3,4-tetrahydro-pyrrolo[1,2-a]pyrazin-1-yl)-1-(4-(1-methylpiperidin-4-yl)piperazin-1-yl)ethanone]",94.8,100
"Cc1ccc(S(=O)(=O)N2CCn3cccc3C2CC(=O)NC2CCCc3cc(CN4C5CCCC4CC5)ccc32)cc1Cl (stereo not shown) [Example 110, N-[6-(8-Azabicyclo[3.2.1]octan-8-yl-methyl)-1,2,3,4-tetrahydro-naphthalen-1-yl]-2-[2-[(3-chloro-4-methyl-phenyl)sulfonyl]-1,2,3,4-tetrahydro-pyrrolo[1,2-a]pyrazin-1-yl]-acetamide]",99.9,98.8
"Cc1ccc(S(=O)(=O)N2CCn3cccc3C2CC(=O)NC2CCCc3cc(CN4CCCC4)ccc32)cc1 (stereo not shown) [Example 85, 2-[2-(p-Tolylsulfonyl)-1,2,3,4-tetrahydro-pyrrolo[1,2-a]pyrazin-1-yl]-N-[6-(pyrrolidin-1-yl-methyl)-1,2,3,4-tetrahydro-naphthalen-1-yl]-acetamide]",99.9,101
"O=C(COCC1c2cccn2CCN1S(=O)(=O)c1ccccc1C(F)(F)F)N1CCC(Oc2ccncc2)CC1 (stereo not shown) [Example 5, 1-(4-(Pyridin-4-yloxy)piperidin-1-yl)-2-((2-(2-(trifluoromethyl)phenylsulfonyl)-1,2,3,4-tetrahydropyrrolo[1,2-a]pyrazin-1-yl)methoxy)ethanone]",99.8,102
"CN(C)Cc1ccc2c(c1)CCCC2NC(=O)CC1c2cccn2CCN1S(=O)(=O)c1cccc(C(F)(F)F)c1 (stereo not shown) [Example 124, N-[6-(Dimethylaminomethyl)-1,2,3,4-tetrahydro-naphthalen-1-yl]-2-[2-[[3-(trifluoromethyl)phenyl]sulfonyl]-1,2,3,4-tetrahydro-pyrrolo[1,2-a]pyrazin-1-yl]-acetamide]",99.7,97.3
"COc1ccc2cc(S(=O)(=O)N3CCn4cccc4C3CC(=O)NC3CCCc4cc(CNC(C)(C)C)ccc43)ccc2c1 (stereo not shown) [Example 114, N-[6-[(tert-Butylamino)-methyl]-1,2,3,4-tetrahydro-naphthalen-1-yl]-2-[2-[(6-methoxy-naphthalen-2-yl)sulfonyl]-1,2,3,4-tetrahydro-pyrrolo[1,2-a]pyrazin-1-yl]-acetamide]",100,99.6
"CCC(C)NCc1ccc2c(c1)CCC(NC(=O)CC1c3cccn3CCN1S(=O)(=O)c1ccc(C)cc1)C2 (stereo not shown) [Example 62, N-[6-[(1-Methyl-propylamino)-methyl]-1,2,3,4-tetrahydro-naphthalen-2-yl]-2-[2-(p-tolylsulfonyl)-1,2,3,4-tetrahydro-pyrrolo[1,2-a]pyrazin-1-yl]-acetamide]",99.2,98.4

# The next lines start with the values.
inhibition at 10 µM (human B1R) [%],inhibition at 10 µM (B1R of the rat) [%],Compound
99.9,103,"COc1ccc2cc(S(=O)(=O)N3CCn4cccc4C3CC(=O)NC3CCCc4cc(CN(C)C(C)(C)C)ccc43)ccc2c1 (stereo not shown) [Example 104, N-[6-[(tert-Butyl-methyl-amino)-methyl]-1,2,3,4-tetrahydro-naphthalen-1-yl]-2-[2-[(6-methoxy-naphthalen-2-yl)sulfonyl]-1,2,3,4-tetrahydro-pyrrolo[1,2-a]pyrazin-1-yl]-acetamide]"
96.1,102,"CNCc1ccc2c(c1)CCC(NC(=O)CC1c3cccn3CCN1S(=O)(=O)c1ccc(C)cc1)C2 (stereo not shown) [Example 140, N-[6-(Methylamino-methyl)-1,2,3,4-tetrahydro-naphthalen-2-yl]-2-[2-(p-tolylsulfonyl)-1,2,3,4-tetrahydro-pyrrolo[1,2-a]pyrazin-1-yl]-acetamide]"
99.8,97.1,"CN(Cc1ccc2c(c1)CCCC2NC(=O)CC1c2cccn2CCN1S(=O)(=O)c1cccc(C(F)(F)F)c1)C(C)(C)C (stereo not shown) [Example 113, N-[6-[(tert-Butyl-methyl-amino)-methyl]-1,2,3,4-tetrahydro-naphthalen-1-yl]-2-[2-[[3-(trifluoromethyl)phenyl]sulfonyl]-1,2,3,4-tetrahydro-pyrrolo[1,2-a]pyrazin-1-yl]-acetamide]"
99.8,103,"Cc1ccc(S(=O)(=O)N2CCn3cccc3C2CC(=O)NC2CCc3cc(CN(C)C(C)(C)C)ccc3C2)cc1 (stereo not shown) [Example 73, N-[6-[(tert-Butyl-methyl-amino)-methyl]-1,2,3,4-tetrahydro-naphthalen-2-yl]-2-[2-(p-tolylsulfonyl)-1,2,3,4-tetrahydro-pyrrolo[1,2-a]pyrazin-1-yl]-acetamide]"
15.7,58.1,"COc1cc(C)c(S(=O)(=O)N2CCn3cccc3C2COCC(=O)NC2CCN(c3ccc(C(F)(F)F)cn3)C2)c(C)c1 (stereo not shown) [Example 33, 2-[[2-[(4-Methoxy-2,6-dimethyl-phenyl)sulfonyl]-1,2,3,4-tetrahydro-pyrrolo[1,2-a]pyrazin-1-yl]-methoxy]-N-[1-[5-(trifluoromethyl)-pyridin-2-yl]-pyrrolidin-3-yl]-acetamide]"
99.8,103,"COc1cc(C)c(S(=O)(=O)N2CCn3cccc3C2COCC(=O)N2CCC3(CC2)CCN(c2ccncc2)CC3)c(C)c1 (stereo not shown) [Example 10, 2-((2-(4-Methoxy-2,6-dimethylphenylsulfonyl)-1,2,3,4-tetrahydropyrrolo[1,2-a]pyrazin-1-yl)methoxy)-1-(9-(pyridin-4-yl)-3,9-diazaspiro[5.5]undecan-3-yl)ethanone]"
99.8,102,"Cc1ccc(S(=O)(=O)N2CCn3cccc3C2CC(=O)NC2CCc3cc(CN(C)C)ccc3C2)cc1Cl (stereo not shown) [Example 115, 2-[2-[(3-Chloro-4-methyl-phenyl)sulfonyl]-1,2,3,4-tetrahydro-pyrrolo[1,2-a]pyrazin-1-yl]-N-[6-(dimethylaminomethyl)-1,2,3,4-tetrahydro-naphthalen-2-yl]-acetamide]"
100,102,"O=C(CC1c2cccn2CCN1S(=O)(=O)c1ccccc1)NC1CCc2cc(CN3CCCCC3)ccc2C1 (stereo not shown) [Example 27, 2-(2-(phenylsulfonyl)-1,2,3,4-tetrahydropyrrolo[1,2-a]pyrazin-1-yl)-N-(6-(piperidin-1-ylmethyl)-1,2,3,4-tetrahydronaphthalen-2-yl)acetamide]"
